Reference: PubChem BioAssay (NCI)
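Values below derive from 48-hour exposures of cells grown in 96-well plates, with endpoints linearly interpolated between the two concentrations bracketing the appropriate inhibition level. GI50: concentration for 50% inhibition of growth. The concentration for full growth arrest is given as TGI.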

Legend:
Assay in all cases: NCI tumour cell line growth inhibition, 48 h
MOLT-4 leukemia = test system: MOLT-4 leukemia
EKVX NSCLC = test system: EKVX NSCLC
SF-295 CNS = test system: SF-295 CNS
UACC-62 melanoma = test system: UACC-62 melanoma
SNB-19 CNS = test system: SNB-19 CNS
RXF 393 renal = test system: RXF 393 renal
COLO 205 colon = test system: COLO 205 colon
LOX IMVI melanoma = test system: LOX IMVI melanoma
CCRF-CEM leukemia = test system: CCRF-CEM leukemia
HOP-92 NSCLC = test system: HOP-92 NSCLC

SMILES	GI50 (MOLT-4 leukemia) [µM]	TGI (MOLT-4 leukemia) [µM]	GI50 (EKVX NSCLC) [µM]	TGI (EKVX NSCLC) [µM]	GI50 (SF-295 CNS) [µM]	TGI (SF-295 CNS) [µM]	GI50 (UACC-62 melanoma) [µM]	TGI (UACC-62 melanoma) [µM]	GI50 (SNB-19 CNS) [µM]	TGI (SNB-19 CNS) [µM]	GI50 (RXF 393 renal) [µM]	TGI (RXF 393 renal) [µM]	GI50 (COLO 205 colon) [µM]	TGI (COLO 205 colon) [µM]	TGI (LOX IMVI melanoma) [µM]	TGI (CCRF-CEM leukemia) [µM]	TGI (HOP-92 NSCLC) [µM]
CCCOC(=O)C1C(c2ccc(OC)cc2)NC(c2ccc(OC)cc2)C(C(=O)OCCC)S1(=O)=O (centres undefined)	> 100	> 100	> 100	> 100	> 100	> 100	> 100	> 100	> 100	> 100	> 100	> 100	> 100	> 100			
COc1ccc(C2=NC(CO)[C@H](c3ccccc3)O2)cc1OC (some centres undefined)		> 100				> 100		> 100		> 100				> 100	> 100	> 100	> 100
CN(C)Cc1nsc(N(C)C)n1				> 100		> 100		> 100		> 100		> 100		> 100	> 100		> 100
C=CCN=C1NC(=O)C(CC(=O)Nc2ccc([N+](=O)[O-])cc2[N+](=O)[O-])S1 (centres undefined)		> 100		> 100		> 100		> 100		> 100		> 100		> 100		> 100	> 100
CC(=O)CC(=O)Nc1ccc(OS(N)(=O)=O)cc1		> 100		> 100		> 100		> 100		> 100		> 100		> 100		> 100	> 100
O=C1C=C(c2ccccc2)NC1(c1ccccc1)c1cc(-c2ccccc2)[nH]c1-c1ccccc1 (centres undefined)		> 100		> 100		> 100		> 100		> 100		0.586		> 100		> 100	
CN(COC(=O)C(C)(C)C)c1nc(N(C)COC(=O)C(C)(C)C)nc(N(C)COC(=O)C(C)(C)C)n1		> 100		> 100		> 100				> 100		41.9		35.5		> 100	
Cc1ccc(S(=O)(=O)NC(=O)Nc2ncn[nH]2)cc1		> 100		> 100		> 100		> 100		> 100		> 100		> 100		> 100	> 100
O=S(=O)(c1ccccc1)C1(C2(S(=O)(=O)c3ccccc3)CCN=N2)CCN=N1 (centres undefined)		> 100		> 100		> 100				> 100		> 100		> 100	> 100	> 100	
O=[N+]([O-])C(=C1c2ccccc2-c2ccccc21)[N+](=O)[O-]		> 100		> 100		> 10		> 100		> 100		> 100		> 100	> 100	> 100	
